{"source": "patent US20150074835A1", "about": "“TRANSGENIC MOUSE EXPRESSING HUMAN LIPOPROTEIN (A) WITH DISABLED VITAMIN C GENE AND ITS USE AS A DISEASE TREATMENT MODEL” (priority 2013, published 2015)", "tested_on": "Lpa+Gulo (−/−) mouse", "experiment": "Lipoprotein-cholesterol, apo(a) particle and apoB-100 particle modulation (SPIFE / IFE of sera) under ascorbic acid supplementation", "assay_type": "in vivo", "details": "30 mg/L, 60 mg/L or 150 mg/L ascorbic acid in drinking water in addition to 500 ppm vitamin C in food (full supplementation); FIG. 6-8", "method": "SPIFE Cholesterol Profiling (FIG. 2): The presence of complete Lp(a) lipoprotein particles in the Lp(a)+GULO(−/−) transgenic mouse serum was confirmed using the electrophoresis method with Helena (Beaumont, Tex.) SPIFE Cholesterol Profiling and Immunofixation electrophoresis (IFE). Immunofixation Electrophoresis (IFE) using the mouse sera was conducted on individual apo(a) (FIG. 3) containing particles and human apoB-100 containing particles (FIG. 4) as well, using human specific apo(a) and apoB-100 antibodies at Health Diagnostic Laboratory, Inc. (Richmond, Va.). The bands represent apo(a) and apoB-100 protein respectively in transgenic mouse and visualization of the same in serum derived from female and male mouse. Lipoprotein-cholesterol, Apo(a) particle, and ApoB-100 particle Modulation (FIG. 6, FIG. 7, and FIG. 8): The analysis was conducted on mouse sera from the Lpa+Gulo (−/−)mouse supplemented with either 30 mg/L, 60 mg/L or 150 mg/L of ascorbic acid provided in drinking water in addition to 500 ppm vitamin C provided in food (full supplementation). […] Sample order in FIGS. 6-8 correspond to the following key, with 30 vc referring to 30 mg/L Vitamin C group, 60 vc referring to 60 mg/L Vitamin C group, and sc referring to fully supplemented (150 mg/L Vitamin C+500 ppm Vitamin C in food) control group. The first three wells of each row were not used.", "data": [{"smiles": "O=C1O[C@H]([C@@H](O)CO)C(O)=C1O", "note": "[ascorbate, ascorbic acid]", "values": [{"measurement": "modulation of the whole spectrum of lipoprotein cholesterols and/or lipoprotein particles in mouse sera", "value": "could be modulated"}]}]}
